# From PMC10167355, “Optimized spirooxindole-pyrazole hybrids targeting the p53-MDM2 interplay induce apoptosis and synergize with doxorubicin in A549 cells” (Scientific Reports, 2023)
# Entries after “also recorded” stand apart in the source; their conditions may differ.
# Experiments:
# MDM2 = test: Western blot of MDM2 level in A549 cells; format: cell-based, human; settings: for MDM2 level, single agent / MDM2 level, combined treatment compared to doxorubicin alone: A549; for MDM2 level, single agent: 0.2 µM derivative alone or 14 µM doxorubicin alone; for MDM2 level, combined treatment compared to doxorubicin alone: 0.2 µM derivative plus 14 µM doxorubicin; for MDM2 level: A549, drug concentration equivalent to IC75 (30 µM), fold over mock
# Protocol: (§1) A549 cells were treated with different concentrations of the molecules as indicated. Cell extracts were prepared as described. Ten-20 μg of total proteins were resolved on 4–15% Mini protean TGX precast gels (Bio-Rad) and transferred to nitrocellulose membrane using 1704158 Trans-Blot Turbo Mini NC Transfer Packs (Bio-Rad) in a Trans-Blot Turbo apparatus (Bio-Rad). Membranes were blocked with 5% non-fat dry milk in 0.1% Tween-20 in PBS for 1 h, then incubated for 1 h at room temperature or overnight at 4 °C with the appropriate primary antibody. The following antibodies were employed: anti-p53 (DO-1, sc-126, Santa Cruz Biotechnology, 1:20.000), anti-p21 (2946, Cell Signaling, 1:2000), anti-MDM2 (SMP14, sc-965, Santa Cruz Biotechnology, 1:200), anti β-actin (AC-74, Sigma-Aldrich, 1:30.000); secondary anti-mouse IgG peroxidase conjugate (A9044, Sigma–Aldrich, 1:10.000) and secondary anti-rabbit peroxidase conjugate (A9169, Sigma-Aldrich, 1: 12.000). Detection was carried out with ECL FAST PICO (ECL-1002, Immunological Sciences, Roma, Italy). Chemiluminescence was analysed by Alliance LD, UVITEC Cambridge (Cambridge, UK).
# p53 = test: Western blot of p53 level in A549 cells; format: cell-based, human; settings: for p53 induction, dose–response: A549, 24 h, 0.01, 0.1, 1, 10 µM; for p53 level, single agent / p53 level, combined treatment compared to doxorubicin alone: A549; for p53 level, single agent: 0.2 µM derivative alone or 14 µM doxorubicin alone; for p53 level, combined treatment compared to doxorubicin alone: 0.2 µM derivative plus 14 µM doxorubicin; for p53 level: A549, drug concentration equivalent to IC75 (30 µM), fold over mock
# Protocol: as §1
# p21 = test: Western blot of p21 level in A549 cells; format: cell-based, human; settings: for p21 level, single agent / p21 level, combined treatment compared to doxorubicin alone: A549; for p21 level, single agent: 0.2 µM derivative alone or 14 µM doxorubicin alone; for p21 level, combined treatment compared to doxorubicin alone: 0.2 µM derivative plus 14 µM doxorubicin
# Protocol: as §1
# [1] = tested on: A2780, A549, HepG2, MDA-MB-453; test: MTT assay, panel of four human cancer cell lines taken together; format: cell-based; settings: all four cell lines, 30 μM = arbitrary limit of pharmacological relevance
# Protocol: After 6–8 h cells were treated with 20 μL containing five 1:10 fold concentrations of our compounds diluted in FCS containing 3% DMSO. As normal non-cancer cell targets we used peripheral blood lymphocytes obtained from three healthy volunteers, isolated by gradient centrifugation (Lympholyte-H Cell Separation Media, EuroClone, Pero, MI, Italy) and stimulated with 1% phytohemagglutinin and 100 U/ml recombinant IL-2. One week after stimulation cells were ready for use at 15,000/well. In both cases, after 72 h treatment, the MTT assay was applied as described elsewhere. […] IC100 and IC75 were extrapolated from the mean concentration–response curves.
# A549 cells = test: Annexin-V-FITC / propidium iodide apoptosis assay; format: cell-based, human; settings: A549, compounds at their specific IC75s, three days
# Protocol: The induction of apoptosis was evaluated in A549 cells characterized by wild-type p53 and MDM2 proteins. They were plated at the opportune concentration (see above) into 25 cm^2 flasks in 10 mL complete medium. After 6–8 h the compounds were added at their specific IC75s, as previously calculated by the MTT assay.
# All floating and adherent cells were harvested three days later, washed with normal saline buffer, and apoptosis determined by double staining with Annexin-V-FITC and propidium iodide (PI) (rh AnnexinV/FITC Kit, Bender MedSystem GmbH, Vienna, Austria). Briefly, 0.5 × 10^6 cells were resuspended in binding buffer 1× and stained with 5 μL of Annexin-V-FITC. After 10 min incubation 10 μL of PI were added and samples incubated for 5 min. Samples were immediately analyzed using a Flow Cytometer (FACScan, BD Biosciences, Milano, Italy) with dedicated software.
# activated PBL = test: MTT assay on normal PBL activated with PHA and recombinant IL-2; format: cell-based; settings: Homo sapiens, mean ± SD of 4–6 IC50 values
# Protocol: (§2) Human tumor cell lines A2780 [ovary, adenocarcinoma, accession number HTL98008, obtained from Interlab Cell Line Collection (ICLC), Genova, Italy], A549 (lung, carcinoma, HTL03001, ICLC), MDA-MB-453 (breast, carcinoma, HTL01013, ICLC), and HepG2 (liver, carcinoma, HB-8065, American Type Culture Collection, Rockville, MA, USA ) were plated at 1.4 × 10^4/ml, 0.65 × 10^4/mL, 4.7 × 10^4/mL, and 1.0 × 10^4/mL, respectively, in 180 μL complete medium (RPMI 1640 for A2780 and A549 and DMEM for MDA-MB-453 and HepG2) into flat-bottomed 96-well microtiter plates. After 6–8 h cells were treated with 20 μL containing five 1:10 fold concentrations of our compounds diluted in FCS containing 3% DMSO. As normal non-cancer cell targets we used peripheral blood lymphocytes obtained from three healthy volunteers, isolated by gradient centrifugation (Lympholyte-H Cell Separation Media, EuroClone, Pero, MI, Italy) and stimulated with 1% phytohemagglutinin and 100 U/ml recombinant IL-2. One week after stimulation cells were ready for use at 15,000/well.
# In both cases, after 72 h treatment, the MTT assay was applied as described elsewhere. […] IC100 and IC75 were extrapolated from the mean concentration–response curves.
# A2780 (ovarian) = test: MTT antiproliferative assay, A2780; format: cell-based; settings: Homo sapiens, 72 h treatment, mean ± SD of 5–6 data
# Protocol: as §2
# (§3) In both cases, after 72 h treatment, the MTT assay was applied as described elsewhere. The IC50 values were calculated from the analysis of single concentration–response curves, each final value is the mean of 5–6 experiments. IC100 and IC75 were extrapolated from the mean concentration–response curves.
# HepG2 (liver) = test: MTT antiproliferative assay, HepG2; format: cell-based; settings: Homo sapiens, 72 h treatment, mean ± SD of 5–6 data
# Protocol: as §2, §3
# A549 (lung) = test: MTT antiproliferative assay, A549; format: cell-based; settings: Homo sapiens, 72 h treatment, mean ± SD of 5–6 data
# Protocol: as §2, §3
compound,measurement,setting,value
Cc1c(C(=O)C2C(c3ccccc3)C3CSCN3C23C(=O)Nc2ccccc23)cnn1-c1ccccc1 (centres unmarked),melting point,,229 to 230 °C
Cc1cccc(C2C3CSCN3C3(C(=O)Nc4ccccc43)C2C(=O)c2cnn(-c3ccccc3)c2C)c1 (centres unmarked),melting point,,128 to 130 °C
COc1ccc(C2C3CSCN3C3(C(=O)Nc4ccccc43)C2C(=O)c2cnn(-c3ccccc3)c2C)cc1 (centres unmarked),melting point,,109 to 110 °C
Cc1c(C(=O)C2C(c3ccc(Cl)cc3)C3CSCN3C23C(=O)Nc2ccccc23)cnn1-c1ccccc1 (centres unmarked),melting point,,122 to 123 °C
Cc1c(C(=O)C2C(/C=C/c3ccccc3)C3CSCN3C23C(=O)Nc2ccccc23)cnn1-c1ccccc1 (centres unmarked),melting point,,144 to 145 °C
Cc1c(C(=O)C2C(c3ccc([N+](=O)[O-])cc3)C3CSCN3C23C(=O)Nc2ccccc23)cnn1-c1ccccc1 (centres unmarked),melting point,,142 to 143 °C
Cc1c(C(=O)C2C(c3cccc([N+](=O)[O-])c3)C3CSCN3C23C(=O)Nc2ccccc23)cnn1-c1ccccc1 (centres unmarked),melting point,,146 to 147 °C
Cc1ccc(C2C3CSCN3C3(C(=O)Nc4ccccc43)C2C(=O)c2cnn(-c3ccccc3)c2C)cc1 (centres unmarked),melting point,,134 to 135 °C
"7'-(Ferrocin-2-yl)-6'-(5-methyl-1-phenyl-1H-pyrazole-4-carbonyl)-3',6',7',7a'-tetrahydro-1'H-spiro[indoline-3,5'-pyrrolo[1,2-c]thiazol]-2-one [8d]","MDM2 level, single agent",MDM2,slight but not significant MDM2 increase
same,"MDM2 level, combined treatment compared to doxorubicin alone",MDM2,no further increases
same,"p53 induction, dose–response",p53,able to induce p53 only at high concentrations
same,"p53 level, single agent",p53,did not increase
same,"p53 level, combined treatment compared to doxorubicin alone",p53,no further increases
same,"p21 level, single agent",p21,did not increase
same,"p21 level, combined treatment compared to doxorubicin alone",p21,no further increases
"Cc1c(C(=O)C2C(c3ccco3)C3CSCN3C23C(=O)Nc2ccccc23)cnn1-c1ccccc1 (centres unmarked) [8b, 7'-(Furan-2-yl)-6'-(5-methyl-1-phenyl-1H-pyrazole-4-carbonyl)-3',6',7',7a'-tetrahydro-1'H-spiro[indoline-3,5'-pyrrolo[1,2-c]thiazol]-2-one]",IC50,[1],≥ 30 µM
same,MDM2 level,MDM2,an increase
same,apoptotic activity,A549 cells,significantly trigger apoptosis
same,apoptotic activity,A549 cells; listed as 8t,highly significant apoptotic activity
same,melting point,,227 to 228 °C
same,p53 level,p53,significantly increased; also recorded: able to activate p53
same,p21 level,"p21; A549, drug concentration equivalent to IC75 (30 µM), fold over mock",an increase
"Cc1c(C(=O)C2C(c3ccc(Cl)cc3Cl)C3CSCN3C23C(=O)Nc2ccccc23)cnn1-c1ccccc1 (centres unmarked) [8h, 7'-(2,4-Dichlorophenyl)-6'-(5-methyl-1-phenyl-1H-pyrazole-4-carbonyl)-1',6',7',7a'-tetrahydro-3'H-spiro[indoline-3,5'-pyrrolo[1,2-c]thiazol]-2-one]","MDM2 level, single agent",MDM2,slight but not significant MDM2 increase
same,"MDM2 level, combined treatment compared to doxorubicin alone",MDM2,no further increases; also recorded: did not trigger a further
same,IC50,activated PBL; PBL A,53.6 ± 2.1 µM
same,IC50,activated PBL; PBL B,57.4 ± 5.5 µM
same,IC50,activated PBL; PBL C,65.8 ± 23.2 µM
same,IC50,A2780 (ovarian),10.3 µM
same,apoptotic activity,A549 cells,slightly trigger apoptosis
same,melting point,,141 to 142 °C
same,IC50,HepG2 (liver),18.6 µM
same,"p53 induction, dose–response",p53,"able to induce p53 only at high concentrations; also recorded: induce p53, although not at high level and only at high concentrations"
same,"p53 level, single agent",p53,did not increase
same,"p53 level, combined treatment compared to doxorubicin alone",p53,no further increases; also recorded: did not trigger a further
same,"p21 level, single agent",p21,did not increase
same,"p21 level, combined treatment compared to doxorubicin alone",p21,no further increases
"Cc1c(C(=O)C2C(c3cccc(F)c3)C3CSCN3C23C(=O)Nc2ccccc23)cnn1-c1ccccc1 (centres unmarked) [8j, 7'-(3-Fluorophenyl)-6'-(5-methyl-1-phenyl-1H-pyrazole-4-carbonyl)-1',6',7',7a'-tetrahydro-3'H-spiro[indoline-3,5'-pyrrolo[1,2-c]thiazol]-2-one]","MDM2 level, single agent",MDM2,slight but not significant MDM2 increase
same,"MDM2 level, combined treatment compared to doxorubicin alone",MDM2,no further increases; also recorded: did not trigger a further
same,IC50,activated PBL; PBL A,54 ± 2.5 µM
same,IC50,activated PBL; PBL B,55 ± 3.3 µM
same,IC50,activated PBL; PBL C,61.2 ± 19.7 µM
same,apoptotic activity,A549 cells,slightly trigger apoptosis
same,melting point,,125 to 126 °C
same,"p53 induction, dose–response",p53,"able to induce p53 only at high concentrations; also recorded: induce p53, although not at high level and only at high concentrations"
same,"p53 level, single agent",p53,did not increase
same,"p53 level, combined treatment compared to doxorubicin alone",p53,no further increases; also recorded: did not trigger a further
same,"p21 level, single agent",p21,did not increase
same,"p21 level, combined treatment compared to doxorubicin alone",p21,no further increases
"Cc1c(C(=O)C2C(c3ccccn3)C3CSCN3C23C(=O)Nc2ccccc23)cnn1-c1ccccc1 (centres unmarked) [8l, 6'-(5-Methyl-1-phenyl-1H-pyrazole-4-carbonyl)-7'-(pyridin-2-yl)-3',6',7',7a'-tetrahydro-1'H-spiro[indoline-3,5'-pyrrolo[1,2-c]thiazol]-2-one]",IC50,[1],≥ 30 µM
same,melting point,,135 to 136 °C
"Cc1c(C(=O)C2C(c3cccc(Br)c3)C3CSCN3C23C(=O)Nc2ccccc23)cnn1-c1ccccc1 (centres unmarked) [8m, 7'-(3-Bromophenyl)-6'-(5-methyl-1-phenyl-1H-pyrazole-4-carbonyl)-3',6',7',7a'-tetrahydro-1'H-spiro[indoline-3,5'-pyrrolo[1,2-c]thiazol]-2-one]","MDM2 modulation, dose–response","MDM2; A549, 24 h, 0.01, 0.1, 1, 10 µM",dose-dependent down regulation of MDM2
same,MDM2 level,MDM2,downmodulated MDM2; also recorded: clear down modulation; also recorded: down regulation of MDM2
same,IC50,activated PBL; PBL A,48.8 ± 4.9 µM
same,IC50,activated PBL; PBL B,36.1 ± 14.7 µM
same,IC50,activated PBL; PBL C,68.1 ± 23.8 µM
same,IC50,A549 (lung),17.7 µM
same,apoptotic activity,A549 cells,highly significant apoptotic activity; also recorded: considerable high level of apoptosis
same,melting point,,132 to 133 °C
same,p53 level,p53,did not induce any changes; also recorded: did not induce p53
"COc1cccc2c1C(=O)c1c(O)c3c(c(O)c1C2=O)C[C@@](O)(C(=O)CO)C[C@@H]3O[C@H]1C[C@H](N)[C@H](O)[C@H](C)O1 [Doxorubicin, doxorubicin]","MDM2 level, single agent",MDM2,strongly decreased
same,"p53 level, single agent",p53,clearly triggered the induction
same,"p21 level, single agent",p21,clearly triggered the induction
